{"source": "patent US8097654B2", "about": "“Radiolabeled 3-[3-(benzoyl-amido)benzyloxy]aspartic acid derivative and method of producing the same” (Suntory Holdings Limited, priority 2004, dated 2012)", "key": {"[1]": {"biological_target": "T1, human EAAT3 (Homo sapiens, UniProt P43005)", "T1 construct": "expressed in transfected cells", "T1 sequence (P43005 1-524)": "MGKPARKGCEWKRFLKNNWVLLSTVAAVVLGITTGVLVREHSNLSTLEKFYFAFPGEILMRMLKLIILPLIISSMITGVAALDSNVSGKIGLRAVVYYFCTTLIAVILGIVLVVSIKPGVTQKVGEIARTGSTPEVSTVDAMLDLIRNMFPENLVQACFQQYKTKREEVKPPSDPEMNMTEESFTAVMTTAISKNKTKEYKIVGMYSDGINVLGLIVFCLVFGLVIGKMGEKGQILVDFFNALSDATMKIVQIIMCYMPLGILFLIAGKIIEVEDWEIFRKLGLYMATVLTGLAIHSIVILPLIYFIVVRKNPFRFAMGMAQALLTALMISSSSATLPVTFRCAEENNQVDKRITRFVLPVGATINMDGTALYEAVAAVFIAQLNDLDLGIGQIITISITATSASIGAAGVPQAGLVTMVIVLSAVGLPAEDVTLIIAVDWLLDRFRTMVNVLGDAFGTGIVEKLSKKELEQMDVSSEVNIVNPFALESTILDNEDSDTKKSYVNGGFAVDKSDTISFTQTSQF", "test": "Inhibition of [14C]-glutamic acid uptake by EAAT3 expressed in MDCK or COS-1 cells", "type": "cell-based", "conditions": "1 μM L-[14C]-glutamic acid, 12 minutes", "protocol": "(§1) In accordance with a known method (Shimamoto, K. et al., Mol. Pharmacol. 53, 195-201, 1998; Bioorg. Med. Chem. Lett. 10, 2407-2410, 2000), the inhibitory activity was assayed as the ability to inhibit the uptake of [^14C]-glutamic acid by human EAAT2 and EAAT3 stably expressed in MDCK (Madin-Darby canine kidney) cells or transiently expressed in COS-1 cells. The glutamate uptake activity was assayed by incubating a mixture of 1 μM of L-[^14C]-glutamic acid with a sample compound at a predetermined concentration for 12 minutes, lysing the cells and then measuring the radioactivity incorporated into the cells with a liquid scintillator. The amount of uptake was expressed in percentage by referring the amount of uptake in the absence of a test compound (i.e., the buffer alone) as 100% and referring the amount of uptake in a sodium-free solution as 0%."}, "[2]": {"biological_target": "EAAT2 (Homo sapiens, UniProt P43004)", "sequence (P43004 whole entry)": "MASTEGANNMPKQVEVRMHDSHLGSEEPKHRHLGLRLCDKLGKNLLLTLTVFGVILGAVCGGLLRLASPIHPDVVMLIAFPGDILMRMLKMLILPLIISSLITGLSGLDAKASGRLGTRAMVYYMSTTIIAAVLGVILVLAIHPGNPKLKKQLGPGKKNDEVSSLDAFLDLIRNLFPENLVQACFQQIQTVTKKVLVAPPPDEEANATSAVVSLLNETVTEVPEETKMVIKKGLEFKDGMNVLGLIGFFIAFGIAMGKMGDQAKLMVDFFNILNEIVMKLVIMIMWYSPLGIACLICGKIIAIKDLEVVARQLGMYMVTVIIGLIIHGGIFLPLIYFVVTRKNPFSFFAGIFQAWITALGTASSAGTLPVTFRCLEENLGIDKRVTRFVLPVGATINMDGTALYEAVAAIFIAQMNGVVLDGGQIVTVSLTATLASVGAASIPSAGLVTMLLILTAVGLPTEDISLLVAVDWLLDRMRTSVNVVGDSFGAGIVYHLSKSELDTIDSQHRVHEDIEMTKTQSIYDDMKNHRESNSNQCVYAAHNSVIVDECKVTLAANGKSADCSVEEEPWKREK", "test": "Inhibition of [14C]-glutamic acid uptake by EAAT2 expressed in MDCK or COS-1 cells", "type": "cell-based", "parameters": "expressed in transfected cells", "conditions": "1 μM L-[14C]-glutamic acid, 12 minutes", "protocol": "as §1"}, "[3]": {"test": "Octanol-water partition coefficient (Log P)", "type": "physicochemical", "conditions": "octanol/phosphate buffer, mean ± S.D.", "protocol": "Equal amounts of octanol and a phosphate buffer were mixed together and [^125I]I-BzA-TBOA was added thereto. After repeatedly shaking for 1 minute and allowing to stand for 1 minute three times, the mixture was allowed to stand for 20 minutes. After repeating this procedure three times, it was centrifuged (1,000×g, 10 min, 4° C.) and the radioactivity of each layer was measured. Thus, the partition coefficient was calculated (Table 1)."}, "[4]": {"test": "Biodistribution of radioactivity after intravenous injection in mice", "conditions": "mean ± S.D."}, "[5]": {"conditions": "2 min after i.v. administration"}, "[6]": {"conditions": "5 min after i.v. administration"}, "[7]": {"conditions": "15 min after i.v. administration"}, "[8]": {"conditions": "30 min after i.v. administration"}}}
{"smiles": "N[C@H](C(=O)O)[C@H](OCc1cccc(NC(=O)c2ccc(I)cc2)c1)C(=O)O", "note": "[I-BzA-TBOA, (2S,3S)-3-[3-(4-iodobenzoylamino)benzyloxy]aspartic acid]", "values": [{"measurement": "IC50", "setting": "[1]", "value": "56 ± 1.8", "unit": "nM"}, {"measurement": "IC50", "setting": "[2]", "value": "4.8 ± 0.32", "unit": "nM"}]}
{"smiles": "N[C@H](C(=O)O)[C@H](OCc1cccc(NC(=O)c2ccc([125I])cc2)c1)C(=O)O", "note": "[[^125I]I-BzA-TBOA, (2S,3S)-3-[3-(4-[^125I]iodobenzoylamino)benzyloxy]aspartic acid]", "values": [{"measurement": "Octanol/water partition coefficient (Log P)", "setting": "[3]; PH 3.0", "value": "0.641 ± 0.006"}, {"measurement": "Octanol/water partition coefficient (Log P)", "setting": "[3]; PH 7.0", "value": "−0.821 ± 0.003"}, {"measurement": "Octanol/water partition coefficient (Log P)", "setting": "[3]; PH 7.4", "value": "−0.849 ± 0.006"}, {"measurement": "Octanol/water partition coefficient (Log P)", "setting": "[3]; PH 8.0", "value": "−0.936 ± 0.007"}, {"measurement": "Radioactivity in Blood", "setting": "[4]; [5]", "value": "2.29 ± 0.23 percentage of injection dose per gram of each tissue"}, {"measurement": "Radioactivity in Blood", "setting": "[4]; [6]", "value": "1.58 ± 0.25 percentage of injection dose per gram of each tissue"}, {"measurement": "Radioactivity in Blood", "setting": "[4]; [7]", "value": "0.67 ± 0.19 percentage of injection dose per gram of each tissue"}, {"measurement": "Radioactivity in Blood", "setting": "[4]; [8]", "value": "0.40 ± 0.12 percentage of injection dose per gram of each tissue"}, {"measurement": "Radioactivity in Blood", "setting": "[4]; 1 hr after i.v. administration", "value": "0.16 ± 0.04 percentage of injection dose per gram of each tissue"}, {"measurement": "Radioactivity in Blood", "setting": "[4]; 2 hr after i.v. administration", "value": "0.07 ± 0.01 percentage of injection dose per gram of each tissue"}, {"measurement": "Radioactivity in Brain", "setting": "[4]; [5]", "value": "0.21 ± 0.09 percentage of injection dose per gram of each tissue"}, {"measurement": "Radioactivity in Brain", "setting": "[4]; [6]", "value": "0.19 ± 0.18 percentage of injection dose per gram of each tissue"}, {"measurement": "Radioactivity in Brain", "setting": "[4]; [7]", "value": "0.06 ± 0.09 percentage of injection dose per gram of each tissue"}, {"measurement": "Radioactivity in Brain", "setting": "[4]; [8]", "value": "0.10 ± 0.13 percentage of injection dose per gram of each tissue"}, {"measurement": "Radioactivity in Brain", "setting": "[4]; 1 hr after i.v. administration", "value": "0.01 ± 0.02 percentage of injection dose per gram of each tissue"}, {"measurement": "Radioactivity in Brain", "setting": "[4]; 2 hr after i.v. administration", "value": "0.18 ± 0.23 percentage of injection dose per gram of each tissue"}, {"measurement": "Radioactivity in Heart", "setting": "[4]; [5]", "value": "0.93 ± 0.06 percentage of injection dose per gram of each tissue"}, {"measurement": "Radioactivity in Heart", "setting": "[4]; [6]", "value": "0.64 ± 0.13 percentage of injection dose per gram of each tissue"}, {"measurement": "Radioactivity in Heart", "setting": "[4]; [7]", "value": "0.33 ± 0.04 percentage of injection dose per gram of each tissue"}, {"measurement": "Radioactivity in Heart", "setting": "[4]; [8]", "value": "0.19 ± 0.14 percentage of injection dose per gram of each tissue"}, {"measurement": "Radioactivity in Heart", "setting": "[4]; 1 hr after i.v. administration", "value": "0.04 ± 0.02 percentage of injection dose per gram of each tissue"}, {"measurement": "Radioactivity in Heart", "setting": "[4]; 2 hr after i.v. administration", "value": "0.00 ± 0.00 percentage of injection dose per gram of each tissue"}, {"measurement": "Radioactivity in Intestine", "setting": "[4]; [5]", "value": "1.76 ± 0.15 percentage of injection dose per gram of each tissue"}, {"measurement": "Radioactivity in Intestine", "setting": "[4]; [6]", "value": "4.51 ± 1.36 percentage of injection dose per gram of each tissue"}, {"measurement": "Radioactivity in Intestine", "setting": "[4]; [7]", "value": "12.28 ± 0.72 percentage of injection dose per gram of each tissue"}, {"measurement": "Radioactivity in Intestine", "setting": "[4]; [8]", "value": "15.91 ± 1.65 percentage of injection dose per gram of each tissue"}, {"measurement": "Radioactivity in Intestine", "setting": "[4]; 1 hr after i.v. administration", "value": "20.05 ± 6.29 percentage of injection dose per gram of each tissue"}, {"measurement": "Radioactivity in Intestine", "setting": "[4]; 2 hr after i.v. administration", "value": "23.69 ± 1.58 percentage of injection dose per gram of each tissue"}, {"measurement": "Radioactivity in Kidney", "setting": "[4]; [5]", "value": "15.17 ± 2.34 percentage of injection dose per gram of each tissue"}, {"measurement": "Radioactivity in Kidney", "setting": "[4]; [6]", "value": "16.02 ± 0.57 percentage of injection dose per gram of each tissue"}, {"measurement": "Radioactivity in Kidney", "setting": "[4]; [7]", "value": "14.47 ± 2.59 percentage of injection dose per gram of each tissue"}, {"measurement": "Radioactivity in Kidney", "setting": "[4]; [8]", "value": "8.29 ± 2.63 percentage of injection dose per gram of each tissue"}, {"measurement": "Radioactivity in Kidney", "setting": "[4]; 1 hr after i.v. administration", "value": "2.08 ± 0.15 percentage of injection dose per gram of each tissue"}, {"measurement": "Radioactivity in Kidney", "setting": "[4]; 2 hr after i.v. administration", "value": "1.03 ± 0.23 percentage of injection dose per gram of each tissue"}, {"measurement": "Radioactivity in Liver", "setting": "[4]; [5]", "value": "28.71 ± 1.97 percentage of injection dose per gram of each tissue"}, {"measurement": "Radioactivity in Liver", "setting": "[4]; [6]", "value": "22.52 ± 4.43 percentage of injection dose per gram of each tissue"}, {"measurement": "Radioactivity in Liver", "setting": "[4]; [7]", "value": "11.11 ± 0.24 percentage of injection dose per gram of each tissue"}, {"measurement": "Radioactivity in Liver", "setting": "[4]; [8]", "value": "4.96 ± 1.65 percentage of injection dose per gram of each tissue"}, {"measurement": "Radioactivity in Liver", "setting": "[4]; 1 hr after i.v. administration", "value": "1.95 ± 0.46 percentage of injection dose per gram of each tissue"}, {"measurement": "Radioactivity in Liver", "setting": "[4]; 2 hr after i.v. administration", "value": "1.50 ± 0.43 percentage of injection dose per gram of each tissue"}, {"measurement": "Radioactivity in Lung", "setting": "[4]; [5]", "value": "3.11 ± 0.22 percentage of injection dose per gram of each tissue"}, {"measurement": "Radioactivity in Lung", "setting": "[4]; [6]", "value": "2.44 ± 0.59 percentage of injection dose per gram of each tissue"}, {"measurement": "Radioactivity in Lung", "setting": "[4]; [7]", "value": "1.39 ± 0.12 percentage of injection dose per gram of each tissue"}, {"measurement": "Radioactivity in Lung", "setting": "[4]; [8]", "value": "0.64 ± 0.42 percentage of injection dose per gram of each tissue"}, {"measurement": "Radioactivity in Lung", "setting": "[4]; 1 hr after i.v. administration", "value": "0.26 ± 0.06 percentage of injection dose per gram of each tissue"}, {"measurement": "Radioactivity in Lung", "setting": "[4]; 2 hr after i.v. administration", "value": "0.10 ± 0.02 percentage of injection dose per gram of each tissue"}, {"measurement": "Radioactivity in Pancreas", "setting": "[4]; [5]", "value": "2.10 ± 0.24 percentage of injection dose per gram of each tissue"}, {"measurement": "Radioactivity in Pancreas", "setting": "[4]; [6]", "value": "2.13 ± 0.26 percentage of injection dose per gram of each tissue"}, {"measurement": "Radioactivity in Pancreas", "setting": "[4]; [7]", "value": "0.94 ± 0.02 percentage of injection dose per gram of each tissue"}, {"measurement": "Radioactivity in Pancreas", "setting": "[4]; [8]", "value": "0.33 ± 0.23 percentage of injection dose per gram of each tissue"}, {"measurement": "Radioactivity in Pancreas", "setting": "[4]; 1 hr after i.v. administration", "value": "0.10 ± 0.06 percentage of injection dose per gram of each tissue"}, {"measurement": "Radioactivity in Pancreas", "setting": "[4]; 2 hr after i.v. administration", "value": "0.06 ± 0.04 percentage of injection dose per gram of each tissue"}, {"measurement": "Radioactivity in Spleen", "setting": "[4]; [5]", "value": "1.11 ± 0.12 percentage of injection dose per gram of each tissue"}, {"measurement": "Radioactivity in Spleen", "setting": "[4]; [6]", "value": "0.65 ± 0.12 percentage of injection dose per gram of each tissue"}, {"measurement": "Radioactivity in Spleen", "setting": "[4]; [7]", "value": "0.30 ± 0.04 percentage of injection dose per gram of each tissue"}, {"measurement": "Radioactivity in Spleen", "setting": "[4]; [8]", "value": "0.11 ± 0.07 percentage of injection dose per gram of each tissue"}, {"measurement": "Radioactivity in Spleen", "setting": "[4]; 1 hr after i.v. administration", "value": "0.03 ± 0.04 percentage of injection dose per gram of each tissue"}, {"measurement": "Radioactivity in Spleen", "setting": "[4]; 2 hr after i.v. administration", "value": "0.03 ± 0.03 percentage of injection dose per gram of each tissue"}, {"measurement": "Radioactivity in Stomach", "setting": "[4]; [5]", "value": "1.12 ± 0.20 percentage of injection dose per gram of each tissue"}, {"measurement": "Radioactivity in Stomach", "setting": "[4]; [6]", "value": "0.78 ± 0.22 percentage of injection dose per gram of each tissue"}, {"measurement": "Radioactivity in Stomach", "setting": "[4]; [7]", "value": "0.88 ± 0.13 percentage of injection dose per gram of each tissue"}, {"measurement": "Radioactivity in Stomach", "setting": "[4]; [8]", "value": "0.58 ± 0.40 percentage of injection dose per gram of each tissue"}, {"measurement": "Radioactivity in Stomach", "setting": "[4]; 1 hr after i.v. administration", "value": "0.74 ± 0.80 percentage of injection dose per gram of each tissue"}, {"measurement": "Radioactivity in Stomach", "setting": "[4]; 2 hr after i.v. administration", "value": "0.48 ± 0.19 percentage of injection dose per gram of each tissue"}]}
